Laboratory results from ChEMBL document CHEMBL3098076, “Triazino indole-quinoline hybrid: a novel approach to antileishmanial agents” (Bioorg Med Chem Lett, 2014).
pIC50: −log10 of the molar value.

Legend:
Leishmania donovani [1] = assay: Antileishmanial activity against intracellular amastigote stage of Leishmania donovani MHOM/IN/80/Dd8 expressing luciferase firefly reporter gene infected in mouse J774A1 cells after 72 hrs by luminescence assay; format: functional, organism-based, J774.A1; conditions: for pIC50: read-out: IC50
Leishmania donovani [2] = assay: Antileishmanial activity against extracellular promastigote stage of Leishmania donovani; format: functional, organism-based
[3] = (§1) Selectivity index, ratio of CC50 for African green monkey Vero cells to IC50 for amastigote stage of Leishmania donovani MHOM/IN/80/Dd8; format: functional
[4] = (§2) Cytotoxicity against African green monkey Vero cells after 72 hrs by MTT assay; format: cell-based; conditions: chlorocebus sabaeus, Vero cells
Vero [5] = assay: as §1; format: functional
Vero [6] = assay: as §2; format: cell-based; conditions: chlorocebus sabaeus, vero, 72 h
[7] = Leishmania donovani, MHOM/IN/80/Dd8, J774.A1, 72 h

Compound | pIC50 (Leishmania donovani [2]; Leishmania donovani) | pIC50 (Leishmania donovani [1]; [7]) | IC50 (Leishmania donovani [1]; j774.a1) | Ratio CC50/IC50 [3] | CC50 at 72 h [4] [µM] | further results
CC(C)n1c2ccccc2c2nnc(SCCNc3ccnc4cc(Cl)ccc34)nc21 | 4.66 | 5.54 |  | 7 | 19.4 | 
CCCCCCCCCCCCCCCCOP(=O)([O-])OCC[N+](C)(C)C [MILTEFOSINE] | 5.96 |  |  | 7 |  | 
CCCn1c2ccccc2c2nnc(SCCNc3ccnc4cc(Cl)ccc34)nc21 | < 4.40 | 4.83 |  | 3 | 41.7 | 
SODIUM ANTIMONY GLUCONATE [listing 1 of 2 here] |  |  |  |  |  | Ratio CC50/IC50 (Vero [5]): > 7
CCCCn1c2ccccc2c2nnc(SCCNc3ccnc4cc(Cl)ccc34)nc21 | < 4.40 | 4.53 |  |  |  | 
SODIUM ANTIMONY GLUCONATE [listing 2 of 2 here] |  |  |  |  |  | CC50 (Vero [6]): > 400 µM; pIC50 (Leishmania donovani [1]; j774.a1): 4.26; pIC50 (Leishmania donovani [2]): < 3.70
Cn1c2ccc(Br)cc2c2nnc(SCCNc3ccnc4cc(Cl)ccc34)nc21 | < 4.40 | < 4.40 |  |  |  | 
CCn1c2ccc(Br)cc2c2nnc(SCCNc3ccnc4cc(Cl)ccc34)nc21 | < 4.40 | < 4.40 |  |  |  | 
Clc1ccc2c(NCCCSc3nnc4c(n3)[nH]c3ccccc34)ccnc2c1 | 4.72 |  | ND(toxic) |  |  | 
Cn1c2ccccc2c2nnc(SCCCNc3ccnc4cc(Cl)ccc34)nc21 | 4.62 |  | ND(toxic) |  |  | 

Continued, in another order:

pIC50 (Leishmania donovani [2]; Leishmania donovani) | pIC50 (Leishmania donovani [1]; [7]) | Compound | IC50 (Leishmania donovani [1]; j774.a1) | Ratio CC50/IC50 [3] | CC50 at 72 h [4] [µM] | further results
5.15 |  | Clc1ccc2c(NCCSc3nnc4c(n3)[nH]c3ccc(Br)cc34)ccnc2c1 | ND(toxic) |  |  | 
5.20 | 6.44 | Cn1c2ccccc2c2nnc(SCCNc3ccnc4cc(Cl)ccc34)nc21 |  | >1111 | > 400 | 
5.04 | 5.15 | CCn1c2ccccc2c2nnc(SCCNc3ccnc4cc(Cl)ccc34)nc21 |  | 7 | 61.5 | 
5.58 |  | CCn1c2ccccc2c2nnc(SCCCNc3ccnc4cc(Cl)ccc34)nc21 | ND(toxic) |  |  | 
5.71 |  | Cn1c2ccc([N+](=O)[O-])cc2c2nnc(SCCNc3ccnc4cc(Cl)ccc34)nc21 | ND(toxic) |  |  | 
5.05 |  | CCn1c2ccccc2c2nnc(SCCCCCNc3ccnc4cc(Cl)ccc34)nc21 | ND(toxic) |  |  | 
5.19 | 5.19 | Cn1c2nc(SCCNc3ccnc4cc(Cl)ccc34)nnc2c2cccc(C(F)(F)F)c21 |  | 6 | 39.3 | 
5.09 |  | Clc1ccc2c(NCCSc3nnc4c5ccccc5n(Cc5ccccc5)c4n3)ccnc2c1 | ND(toxic) |  |  | 
4.77 | 5.24 | CC(C)Cn1c2ccccc2c2nnc(SCCNc3ccnc4cc(Cl)ccc34)nc21 |  | 5 | 28.6 | 
5.10 | 4.99 | C=CCn1c2ccccc2c2nnc(SCCNc3ccnc4cc(Cl)ccc34)nc21 |  | 1 | 10.5 | 
5.06 | 5.95 | Clc1ccc2c(NCCSc3nnc4c(n3)[nH]c3ccccc34)ccnc2c1 |  | 67 | 74.3 | 
4.82 |  | Cn1c2ccccc2c2nnc(SCCCCCNc3ccnc4cc(Cl)ccc34)nc21 | ND(toxic) |  |  | 
